Experimental data reported in patent publication US12459951B2, “Compounds that interact with RAS superfamily proteins for treatment of cancers, inflammatory diseases, rasopathies, and fibrotic disease” (SHY Therapeutics, LLC, priority 2022, dated 2025).

How the values were obtained:
KRas G12D mutant = assay: Ras GTP Binding Domain Inhibition Assay (Ras Superfamily Assay); conditions: for KRas G12D mutant + SOS: % inh.: with SOS; for KRas G12D mutant: % inh.: without SOS
In short: (§1)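 His-tagged GTPases immobilised on nickel-coated plates, pre-incubated with compound (20 μM single point, or serial dilution for IC50) 3 h at room temperature, with or without 10-30 μg/mL Sos (residues 556-1049) in the final hour. Bound Cy3- or Cy5-GTP (100 nM, 45 min) measured by fluorescence after washing.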

Rac-1 = molecular target: T1, Rac-1 (Homo sapiens, UniProt P63000); assay: as above; conditions: read-out: Rac-1: % inh.
T1 construct: made in house
In short: as §1

KRas wild type = assay: as above; conditions: for KRas wild type + SOS: % inh.: with SOS; for KRas wild type: % inh.: without SOS
In short: as §1

Akt phosphorylation = assay: Akt Phosphorylation Assay (western blot), Panc-1; type: cell-based, human; conditions: at 10 μM, * = activation
In short: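 Phospho-Akt (Ser473) was measured by western blot in lysates of KRas G12D Panc-1 cells exposed to test compound for 6 h at 37 °C, either at 10 μM final with 0.3% DMSO or as serial dilutions for IC50. One format used overnight 0.5% FBS starvation followed by a 15 min pulse of 1.5 ng/ml EGF. The other used cells in 10% FBS with no stimulation.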

Row | SMILES | KRas G12D mutant + SOS: % inh. (KRas G12D mutant; 20 μM compound) | KRas G12D mutant: % inh. (KRas G12D mutant; 20 μM compound) | inhibition at 20 µM (Rac-1) | KRas wild type + SOS: % inh. (KRas wild type; 20 μM compound) | KRas wild type: % inh. (KRas wild type; 20 μM compound) | KRas G12D mutant + SOS: % inh. (KRas G12D mutant; at 20 μM) | KRas G12D mutant: % inh. (KRas G12D mutant; at 20 μM) | KRas wild type + SOS: % inh. (KRas wild type; at 20 μM) | KRas wild type: % inh. (KRas wild type; at 20 μM) | % inh of Akt phosphorylation in Panc-1 (Akt phosphorylation)
1 | COCC1CCN(c2nc(-c3ccccn3)nn3cc(-c4ccn(C(C)C)n4)c(C)c23)C1 (racemic) [Compound 10, rac 6-(1-Isopropyl-1H-pyrazol-3-yl)-4-(3-(methoxymethyl)pyrrolidin-1-yl)-5-methyl-2-(pyridin-2-yl)pyrrolo[2,1-f][1,2,4]triazine] | 0 (0 = 0% inhibition) | A (A = 1-25% inhibition) | 1 to 25% | 0 (0 = 0% inhibition) | A (A = 1-25% inhibition) | – | – | – | – | 0 (0% inhibition)
2 | COC[C@@H]1CC[C@@H]1CNc1nc(-c2ccccn2)nn2cc(-c3ccn(C(C)C)n3)c(C)c12 (racemic) [Compound 11, rac 6-(1-Isopropyl-1H-pyrazol-3-yl)-N-(((1S,2R)-2-(methoxymethyl)cyclobutyl)methyl)-5-methyl-2-(pyridin-2-yl)pyrrolo[2,1-f][1,2,4]triazin-4-amine] | 0 (0 = 0% inhibition) | A (A = 1-25% inhibition) | 0% | 0 (0 = 0% inhibition) | 0 (0 = 0% inhibition) | – | – | – | – | 0 (0% inhibition)
3 | COC1CCCN(c2nc(-c3ccccn3)nn3cc(-c4ccn(C(C)C)n4)c(C)c23)C1 (racemic) [Compound 12, rac 6-(1-Isopropyl-1H-pyrazol-3-yl)-4-(3-methoxypiperidin-1-yl)-5-methyl-2-(pyridin-2-yl)pyrrolo[2,1-f][1,2,4]triazine] | 0 (0 = 0% inhibition) | A (A = 1-25% inhibition) | 0% | 0 (0 = 0% inhibition) | 0 (0 = 0% inhibition) | – | – | – | – | 0 (0% inhibition)
4 | CO[C@H]1CC[C@H](Nc2nc(-c3nccn3C)nn3cc(-c4ccn(C)n4)c(C(=O)NCC(F)(F)F)c23)C1 (racemic) [Compound 181, 4-(((1S,3S)-3-Methoxycyclopentyl)amino)-2-(1-methyl-1H-imidazol-2-yl)-6-(1-methyl-1H-pyrazol-3-yl)-N-(2,2,2-trifluoroethyl)pyrrolo[2,1-f][1,2,4]triazine-5-carboxamide] | 0 (0 = 0% inhibition) | A (A = 1-25% inhibition) | 1 to 25% | A (A = 1-25% inhibition) | A (A = 1-25% inhibition) | – | – | – | – | B* (26-49% activation)
5 | CO[C@H]1CC[C@H](Nc2nc(-c3nccn3C)nn3cc(-c4ccn(C)n4)c(C(=O)NC4CC4)c23)C1 (racemic) [Compound 182, rac N-Cyclopropyl-4-(((1S,3S)-3-methoxycyclo-pentyl)amino)-2-(1-methyl-1H-imidazol-2-yl)-6-(1-methyl-1H-pyrazol-3-yl)pyrrolo[2,1-f][1,2,4]triazine-5-carboxamide] | 0 (0 = 0% inhibition) | A (A = 1-25% inhibition) | 1 to 25% | A (A = 1-25% inhibition) | A (A = 1-25% inhibition) | – | – | – | – | B* (26-49% activation)
6 | COCCNC(=O)c1c(-c2ccn(C)n2)cn2nc(-c3nccn3C)nc(N[C@H]3CC[C@H](OC)C3)c12 (racemic) [Compound 183, rac 4-(((1S,3S)-3-Methoxycyclo-pentyl)amino)-N-(2-methoxyethyl)-2-(1-methyl-1H-imidazol-2-yl)-6-(1-methyl-1H-pyrazol-3-yl)pyrrolo[2,1-f][1,2,4]triazine-5-carboxamide] | A (A = 1-25% inhibition) | A (A = 1-25% inhibition) | 1 to 25% | A (A = 1-25% inhibition) | 0 (0 = 0% inhibition) | – | – | – | – | A (1-25% inhibition)

Further lines, with some results ahead:

Row | KRas G12D mutant + SOS: % inh. (KRas G12D mutant; 20 μM compound) | KRas G12D mutant: % inh. (KRas G12D mutant; 20 μM compound) | inhibition at 20 µM (Rac-1) | KRas wild type + SOS: % inh. (KRas wild type; 20 μM compound) | KRas wild type: % inh. (KRas wild type; 20 μM compound) | KRas G12D mutant + SOS: % inh. (KRas G12D mutant; at 20 μM) | KRas G12D mutant: % inh. (KRas G12D mutant; at 20 μM) | KRas wild type + SOS: % inh. (KRas wild type; at 20 μM) | KRas wild type: % inh. (KRas wild type; at 20 μM) | SMILES | % inh of Akt phosphorylation in Panc-1 (Akt phosphorylation)
7 | 0 (0 = 0% inhibition) | B (B = 26-49% inhibition) | 1 to 25% | A (A = 1-25% inhibition) | A (A = 1-25% inhibition) | – | – | – | – | COCCCNC(=O)c1c(-c2ccn(C)n2)cn2nc(-c3nccn3C)nc(N[C@H]3CC[C@H](OC)C3)c12 (racemic) [Compound 184, rac 4-(((1S,3S)-3-methoxycyclo-pentyl)amino)-N-(3-methoxypropyl)-2-(1-methyl-1H-imidazol-2-yl)-6-(1-methyl-1H-pyrazol-3-yl)pyrrolo[2,1-f][1,2,4]triazine-5-carboxamide] | A* (1-25% activation)
8 | 0 (0 = 0% inhibition) | A (A = 1-25% inhibition) | 0% | 0 (0 = 0% inhibition) | A (A = 1-25% inhibition) | – | – | – | – | CO[C@H]1CC[C@H](Nc2nc(-c3nccn3C)nn3cc(-c4ccn(C)n4)c(C(=O)NCCN4CCOCC4)c23)C1 (racemic) [Compound 185, rac 4-(((1S,3S)-3-methoxycyclo-pentyl)amino)-2-(1-methyl-1H-imidazol-2-yl)-6-(1-methyl-1H-pyrazol-3-yl)-N-(2-morpholino-ethyl)pyrrolo[2,1-f][1,2,4]triazine-5-carboxamide] | A (1-25% inhibition)
9 | – | – | 26 to 49% | – | – | B (B = 26-49% inhibition) | B (B = 26-49% inhibition) | B (B = 26-49% inhibition) | A (A = 1-25% inhibition) | CO[C@@H]1C[C@H]1Nc1nc(-c2nccn2C)nn2cc(-c3cccnc3)c(-c3ccccc3)c12 (racemic) [Compound 190, N-((1R,2R)-2-Methoxycyclopropyl)-2-(1-methyl-1H-imidazol-2-yl)-5-phenyl-6-(pyridin-3-yl)pyrrolo[2,1-f][1,2,4]triazin-4-amine] | D* (85-100% activation)
10 | – | – | 1 to 25% | – | – | A (A = 1-25% inhibition) | A (A = 1-25% inhibition) | A (A = 1-25% inhibition) | A (A = 1-25% inhibition) | CO[C@H]1CC[C@@H](Nc2nc(-c3nccn3C)nn3cc(-c4cccnc4)c(-c4ccccc4)c23)C1 (racemic) [Compound 193, rac N-((1R,3S)-3-Methoxycyclopentyl)-2-(1-methyl-1H-imidazol-2-yl)-5-phenyl-6-(pyridin-3-yl)pyrrolo[2,1-f][1,2,4]triazin-4-amine] | D* (85-100% activation)
11 | – | – | 1 to 25% | – | – | A (A = 1-25% inhibition) | A (A = 1-25% inhibition) | 0 (0 = 0% inhibition) | A (A = 1-25% inhibition) | CO[C@H]1CC[C@H](Nc2nc(-c3nccn3C)nn3cc(-c4cccnc4)c(-c4ccccc4)c23)C1 (racemic) [Compound 194, rac N-((1S,3S)-3-Methoxycyclopentyl)-2-(1-methyl-1H-imidazol-2-yl)-5-phenyl-6-(pyridin-3-yl)pyrrolo[2,1-f][1,2,4]triazin-4-amine] | D* (85-100% activation)
12 | – | – | 1 to 25% | – | – | A (A = 1-25% inhibition) | A (A = 1-25% inhibition) | A (A = 1-25% inhibition) | 0 (0 = 0% inhibition) | CO[C@@H]1C[C@H]1Nc1nc(-c2nccn2C)nn2cc(-c3ccncc3)c(-c3ccccc3)c12 (racemic) [Compound 197, rac N-((1R,2R)-2-methoxycyclopropyl)-2-(1-methyl-1H-imidazol-2-yl)-5-phenyl-6-(pyridin-4-yl)pyrrolo[2,1-f][1,2,4]triazin-4-amine] | A* (1-25% activation)
13 | – | – | 26 to 49% | – | – | B (B = 26-49% inhibition) | B (B = 26-49% inhibition) | B (B = 26-49% inhibition) | B (B = 26-49% inhibition) | CO[C@H]1CC[C@@H](Nc2nc(-c3nccn3C)nn3cc(-c4ccncc4)c(-c4ccccc4)c23)C1 (racemic) [Compound 200, rac N-((1R,3S)-3-Methoxycyclopentyl)-2-(1-methyl-1H-imidazol-2-yl)-5-phenyl-6-(pyridin-4-yl)pyrrolo[2,1-f][1,2,4]triazin-4-amine] | B (26-49% inhibition)
14 | – | – | 26 to 49% | – | – | B (B = 26-49% inhibition) | B (B = 26-49% inhibition) | B (B = 26-49% inhibition) | A (A = 1-25% inhibition) | CO[C@H]1CC[C@H](Nc2nc(-c3nccn3C)nn3cc(-c4ccncc4)c(-c4ccccc4)c23)C1 (racemic) [Compound 201, rac N-((1S,3S)-3-Methoxycyclopentyl)-2-(1-methyl-1H-imidazol-2-yl)-5-phenyl-6-(pyridin-4-yl)pyrrolo[2,1-f][1,2,4]triazin-4-amine] | B (26-49% inhibition)
